Experimental data as given in paper PMC9230784, “Development of a Novel Class of Pyridazinone Derivatives as Selective MAO-B Inhibitors” (Molecules, 2022).

Tests used:
Recombinant human MAO-A = target: T1, Recombinant human MAO-A (Homo sapiens, UniProt P21397); experiment: biochemical; settings: for remaining activity at 10 µM: 10 µM compound, mean ± standard error of duplicate or triple studies, read-out: Residual Activity at 10 µM (%) MAO-A; for IC50: kynuramine 0.06 mM, highest concentration 40 µM, read-out: IC50 (µM) MAO-A
T1 construct: purchased Sigma-Aldrich (St. Louis, MO, USA)
T1 sequence (P21397 1-527): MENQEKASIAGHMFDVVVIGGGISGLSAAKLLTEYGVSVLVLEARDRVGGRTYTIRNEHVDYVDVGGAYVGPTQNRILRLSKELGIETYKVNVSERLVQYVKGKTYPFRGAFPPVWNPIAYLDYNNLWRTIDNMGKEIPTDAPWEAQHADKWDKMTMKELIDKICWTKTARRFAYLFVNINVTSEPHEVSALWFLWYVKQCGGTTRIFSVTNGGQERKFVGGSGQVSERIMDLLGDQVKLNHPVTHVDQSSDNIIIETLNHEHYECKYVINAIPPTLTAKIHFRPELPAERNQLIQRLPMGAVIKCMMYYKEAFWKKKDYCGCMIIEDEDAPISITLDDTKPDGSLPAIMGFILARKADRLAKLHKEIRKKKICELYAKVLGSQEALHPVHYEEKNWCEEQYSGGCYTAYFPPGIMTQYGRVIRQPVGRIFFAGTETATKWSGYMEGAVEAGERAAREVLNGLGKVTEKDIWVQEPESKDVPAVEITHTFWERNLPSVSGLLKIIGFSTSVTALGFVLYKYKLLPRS
Method: (§1) The IC50 values were determined by measuring the residual activity at different concentrations of the compounds and by using GraphPad Prism software 5.0. […] BACE1 inhibitory activities were tested by the BACE1 activity detection kit. The assay method was described previously. Recombinant human MAO-A and MAO-B, AChE from Electrophorus electricus, BChE from equine serum, BACE1, and their substrates and reference inhibitors were purchased from Sigma-Aldrich (St. Louis, MO, USA).
Lineweaver–Burk plots were used to examine the inhibition patterns, and secondary plots were used to calculate the Ki values with three inhibitor dosages.

MAO-B = target: T2, MAO-B (Homo sapiens, UniProt P27338); experiment: biochemical; format: biochemical; settings: for remaining activity at 10 µM: 10 µM compound, mean ± standard error of duplicate or triple studies, read-out: Residual Activity at 10 µM (%) MAO-B; for IC50: benzylamine 0.3 mM, highest concentration 40 µM, read-out: IC50 (µM) MAO-B; for SI (selectivity index for MAO-B compared with MAO-A): MAO-B versus MAO-A
T2 construct: purchased Sigma-Aldrich (St. Louis, MO, USA)
T2 sequence (P27338 1-520): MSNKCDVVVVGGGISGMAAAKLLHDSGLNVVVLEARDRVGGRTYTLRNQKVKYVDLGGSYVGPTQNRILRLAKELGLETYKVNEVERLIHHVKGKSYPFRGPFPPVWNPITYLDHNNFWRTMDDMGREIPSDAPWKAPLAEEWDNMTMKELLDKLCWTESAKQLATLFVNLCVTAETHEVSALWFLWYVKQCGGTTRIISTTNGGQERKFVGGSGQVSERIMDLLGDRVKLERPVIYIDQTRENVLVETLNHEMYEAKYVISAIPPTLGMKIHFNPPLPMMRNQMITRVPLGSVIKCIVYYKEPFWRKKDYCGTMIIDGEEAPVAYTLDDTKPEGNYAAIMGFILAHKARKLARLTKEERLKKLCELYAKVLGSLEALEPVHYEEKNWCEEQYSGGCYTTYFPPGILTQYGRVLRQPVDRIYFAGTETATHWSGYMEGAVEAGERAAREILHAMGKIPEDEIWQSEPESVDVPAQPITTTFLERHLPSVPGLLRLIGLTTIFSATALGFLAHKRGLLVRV
Method: as §1, with “USA). […]” for “USA).”

[1] = PAMPA-BBB
[2] = PAMPA-BBB; cited from earlier work

Structure (SMILES)	remaining activity at 10 µM (Recombinant human MAO-A)	IC50 (Recombinant human MAO-A)	remaining activity at 10 µM (MAO-B)	IC50 (MAO-B)	SI (selectivity index for MAO-B compared with MAO-A) (MAO-B)	Prediction (BBB permeation class) [1]	Bibliography Pe (×10^−6 cm/s) [2]
O=C(Cn1nc(N2CCOCC2)ccc1=O)NN=Cc1ccccc1 [TR14]	97.47 ± 0.71%	> 40 µM	107 ± 2.01%	> 40 µM			
COc1cccc(N2CCN(c3ccc(=O)n(CC(=O)NN=Cc4ccc(F)cc4)n3)CC2)c1 [TR3]	71.66 ± 0.71%	19.7 ± 0.3 µM	20.1 ± 1.15%	2.11 ± 0.51 µM	9.31		
O=C(Cn1nc(N2CCN(c3cccc(C(F)(F)F)c3)CC2)ccc1=O)NN=Cc1ccccc1 [TR7]	55.4 ± 0.84%	14.4 ± 3.55 µM	90.7 ± 6.64%	> 40 µM	<0.36		
COc1cccc(N2CCN(c3ccc(=O)n(CC(=O)NN=Cc4ccc(Br)cc4)n3)CC2)c1 [TR6]	51.7 ± 4.55%	12.33 ± 0.11 µM	70.2 ± 3.8%	15.1 ± 0.18 µM	0.81		
NCCc1ccc(O)c(O)c1 [Dopamine, reference compound]						CNS- (CNS-: Pe (10^−6 cm/s) <2, less BBB permeable)	0.2 ×10^−6 cm/s
COc1ccc(C=NNC(=O)Cn2nc(N3CCN(c4cccc(OC)c4)CC3)ccc2=O)cc1 [TR4]	61 ± 3.54%	16.5 ± 1.66 µM	88.6 ± 8.61%	> 40 µM	<0.41		
CN(C)c1ccc(C=NNC(=O)Cn2nc(N3CCN(c4cccc(C(F)(F)F)c4)CC3)ccc2=O)cc1 [TR12]	52.5 ± 1.77%	14.7 ± 2.96 µM	85.3 ± 1.59%	> 40 µM	<0.37		
COc1cccc(N2CCN(c3ccc(=O)n(CC(=O)NN=Cc4ccc(C)cc4)n3)CC2)c1 [TR5]	72.8 ± 1.02%	18.19 ± 0.09 µM	45.6 ± 2.56%	4.42 ± 0.23 µM	4.12		
O=C(Cn1nc(N2CCN(c3cccc(C(F)(F)F)c3)CC2)ccc1=O)NN=Cc1ccc(Br)cc1 [TR13]	74.2 ± 6.43%	31 ± 4.33 µM	100 ± 5.43%	> 40 µM	<0.78		
COc1ccc(C=NNC(=O)Cn2nc(N3CCN(c4cccc(C(F)(F)F)c4)CC3)ccc2=O)cc1 [TR10]	56 ± 2.26%	13.3 ± 1.81 µM	91.9 ± 7.09%	> 40 µM	<0.33		
